Data reported in patent US20240002441A1, “PEPTIDES AND USES THEREOF IN MODULATION OF AMYLOID-BETA PROTEIN DEGRADING PROTEASES” (priority 2020, published 2024).

Columns and labels:
[1] = test system: Ang II-induced expression of IL-6 and Collagen III in EA.hy926 cells; assay: Ang II-induced expression of IL-6 and Collagen III in EA.hy926 cells, western blotting (Example 9); type: cell-based; conditions: 24 h
Description: EA.hy926 cells (passage 40) were seeded at a density of 1×10^6 cells/mL. After 24 hours, cells were incubated overnight in reduced serum media. Cells were then treated over 24 h as follows: • 1. Vehicle control • 2. Ang II (10 nM) • 3. […] Ang II (10 nM)+rhACE2 (0.05 ng/μL) • 5.
Following incubation, cells were lysed using lysis buffer (Thermo Fisher Scientific, Cat #89900) containing 1% protease inhibitor (Thermo Fisher Scientific, Cat #1861278). Cell lysate was centrifuged at 13,000 rpm for 10 min. Protein concentration in the supernatant was determined by NanoDrop (Thermo Fisher Scientific, Cat #ND-1000). Supernatants were stored at −30° C. until analysed.
Samples were diluted in SDS-PAGE reducing sample buffer (Bio-Rad Laboratories, Cat #1610747; California, USA) containing 1% β-mercaptoethanol (Bio-Rad Laboratories, Cat #221610710) to reach a final concentration of […]. Prior to loading, samples were heated at 95° C. for 5 min. Samples were loaded into the wells alongside the molecular weight marker (Life Technologies, Cat #LC5800; California, USA). Electrophoresis was conducted at 200 V for 40 min in 1× running buffer. Following protein separation by SDS-PAGE, proteins were blotted onto nitrocellulose membranes at 100 V for 1 h in 1× transfer buffer. The membranes were then blocked in 5% skim milk in 1× Tris-buffered saline (TBST) containing 0.05% Tween 20 (Thermo Fisher Scientific, Cat #28352) for 1 h at room temperature. The membranes were incubated with IL-6 (1:500; Thermo Fisher Scientific, Cat #700480) or collagen III (1:500; Invitrogen, Cat #PA5-27828) primary antibodies while rocking at 4° C. overnight. Membranes were then probed with secondary antibody conjugated with horseradish peroxidase (HRP) (1:6000) for 1 h at room temperature. The HRP-labelled proteins were detected using chemiluminescence SuperSignal™ ECL Western Blotting Substrate (Thermo Fisher Scientific, Cat #34577) at 1:1 ratio. Beta-actin was used as a loading control. Protein bands were analysed using ImageJ (version 1.51) and band density was normalised with the respective beta-actin.

[2] = test system: STZ diabetic mouse model; assay: STZ diabetic mouse model, kidney inflammation and fibrosis, ND and STZ mice (Example 14); type: in vivo; conditions: for post treatment blood glucose compared with vehicle: 1 mg/kg s.c. osmotic minipump
Description: Mice were divided into four groups, two groups of mice remained untreated (ND) and two groups of mice were treated with STZ (150 mg/kg) by i.p. injection 1 week before starting treatment with SEQ ID NO. 2 or vehicle. Before treatment with SEQ ID NO. 2 or vehicle began, one week post STZ administration, 24 hour urine and blood samples were taken and blood glucose was assessed in all mice. The two ND groups and the two STZ treatment groups were then treated with either vehicle (10% DMSO/PBS) only or SEQ ID NO: 2 (1 mg/kg) subcutaneously by osmotic minipump. The mice were then monitored for 3 months before sacrifice. Monitoring included assessing the weight of each animal every day, taking blood samples biweekly and 24 hour urine samples at 1, 2 and 3 months post treatment. 24 hour urine samples were collected from mice placed in metabolic cages. At 3 months after treatment, a blood sample was collected (cardiac bleed) and the animals were sacrificed. Kidney and heart tissues were collected and weight and the tissues processed for in vitro analysis.
Urine samples were analysed for urinary albumin ELISA. The volume of urine was measured and then samples were diluted by 1:8000 with water. The samples were incubated for 1 h in antibody-coated 96-well plates (in duplicate). After incubation, a Development solution (100 μL) containing sandwich antibody was added to the wells and the samples incubated for 10 minutes in the dark. Stop solution (100 μL) was added and the optical density was measured at 450 nm.
The kidney tissue samples were analysed for fibrosis using Masson's trichrome staining. 4 μm-thick paraffin-embedded kidneys were sectioned. After dewaxing, sections were post-fixed in Bouin's fixative overnight. The slides were stained in Weigert's iron haematoxylin followed by Biebrich scarlet-acid fuchsin solution. The slides were differentiated in phosphomolybdic-phosphotungstic acid solution and then further stained in aniline blue solution. After differentiation in 1% acetic acid solution the slides were mounted with mounting medium and the sections were imaged on an Aperio Slide Scanner at ×20 magnification. The images were analysed on ImageJ.
Kidney samples in mice sacrificed one month after treatment were also analysed for the presence of IL-6 by western blot analysis. Homogenised kidney samples were heat-denatured and separated using SDS-PAGE. The membranes were incubated with IL-6 primary antibody at 1:500 dilution, followed by incubation with a secondary antibody (goad anti-rabbit antibody at 1:16000) and developed the following day using enhanced chemiluminescence (ECL) as a substrate. β-actin was used as a loading control.

With “H-SLFELGKMIL-NH2 [SEQ ID NO:2, H2N-SLFELGKMIL-NH2]” the “Collagen III expression compared to cells treated with Ang II alone” value ([1]; Ang II 10 nM plus 2A 26 μM and/or ACE2 0.05 ng/μL) was “significantly lower”, the “IL-6 expression compared to cells treated with Ang II alone” value ([1]; Ang II 10 nM plus peptide 26 μM and/or rhACE2 0.05 ng/μL) was “significantly lower” and the “Collagen III expression” value ([1]; EA.hy926 cells, Ang II 10 nM alone, or Ang II and 2A (26 μM)) was 28±6%. For the same substance, the “post treatment blood glucose compared with vehicle” value ([2]; ND mice) was “similar”, the “urine volume per day” value ([2]; ND mice, before and after treatment) was “the same before or after treatment” and the “kidney:bodyweight ratio” value ([2]; ND mice, peptide or vehicle) was “remained the same”. The urinary albumin ([2]; ND mice, peptide or vehicle) was “remained the same”, the “kidney:bodyweight ratio, increase compared with STZ mice treated with vehicle” value ([2]; STZ mice) was “even more” and the “kidney IL-6 expression compared with vehicle treated STZ mice” value ([2]; STZ mice sacrificed one month after treatment, western blot) was “lower”. The “post treatment blood glucose compared with vehicle” value ([2]; STZ mice) was “marginally lower”, the urinary albumin ([2]; STZ mice, 2 and 3 months post treatment, with either vehicle or peptide) was “increased” and the “renal cortical fibrosis compared to STZ mice treated with vehicle” value ([2]; STZ mice, Masson's trichrome staining) was “tendency to be lower”. For the same substance, the “urine volume per day” value ([2]; STZ mice, whether treated with peptide or vehicle) was “increased urine volume per day”.
